Numbering of substitutions follows the chain as printed.
Legend:
[1] = target: T1, human ALDH2*2 recombinant mutant enzyme (E487K) (Homo sapiens, UniProt P05091, E504K); test: ALDH2 enzymatic assay (NADH at 340 nm), recombinant mutant enzyme; assay type: biochemical; design: key: −: no activation or inhibition; +: activation less than control 1; ++: activation similar to control 1, within 10%; +++: activation more than control 1 and less than control (compound 161); ++++: activation similar to compound 161, within 10%; settings: activation relative to benchmarks control 1 and compound 161
T1 construct: His-tag (pTrcHis vector) (N); made in house; host or cells: E. coli BL21
T1 sequence (P05091 18-517 E504K): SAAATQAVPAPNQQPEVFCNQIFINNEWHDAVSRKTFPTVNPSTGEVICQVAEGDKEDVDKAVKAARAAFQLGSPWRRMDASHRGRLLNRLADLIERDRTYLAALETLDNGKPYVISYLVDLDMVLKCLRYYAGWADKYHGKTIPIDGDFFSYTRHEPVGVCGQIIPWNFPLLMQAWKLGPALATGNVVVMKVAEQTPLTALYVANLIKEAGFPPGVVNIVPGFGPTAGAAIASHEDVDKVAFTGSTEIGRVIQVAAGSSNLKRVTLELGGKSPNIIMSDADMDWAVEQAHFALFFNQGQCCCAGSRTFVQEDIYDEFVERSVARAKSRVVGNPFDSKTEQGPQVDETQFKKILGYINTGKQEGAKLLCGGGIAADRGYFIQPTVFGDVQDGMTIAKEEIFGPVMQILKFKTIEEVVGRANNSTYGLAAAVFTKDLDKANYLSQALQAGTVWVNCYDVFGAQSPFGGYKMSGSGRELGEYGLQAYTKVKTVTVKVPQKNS
From the text: (§1) ALDH2 catalyzes the oxidative reaction of substrate acetaldehyde to acetic acid using NAD^+ as a cofactor. Enzymatic activity, or catalytic rate, of aldehyde dehydrogenase (ALDH2) can be measured spectrophotometrically at UV wavelength λ340 nm by the accumulation of reduced product NADH derived from NAD^+. […] This method is well-established in the literature [e.g. D. K. Rex, W. F. Bosron, J. E. Smialek, T. K. Li, Alcohol Clin Exp Res 9, 147 (1985)].
(§2) Full-length wild type human ALDH2 cDNA was purchased from ATCC (No. MGC-1806. GenBank ID: BC002967). The 18-amino acid mitochondria transport signal sequence was removed by PCR and cloned into the NheI/HindIII sites of a His-tag vector, pTrcHis, using standard molecular cloning techniques. The human ALDH2* cDNA construct containing the Asian E487K mutation was obtained by site-directed mutagenesis to create the E487K substitution of the wild type ALDH2. Both human clones were designed to express a recombinant protein with the His-tag at the N-terminus of the protein. For the co-expression experiments of human ALDH2 wild type and ALDH2*2 heterotetramers, a wild type ALDH2 gene and a ALDH2 E487K gene were inserted separately into the two multiple cloning sites of pETDuet-1 vector. (Novagen, Calif., USA). All the vectors were transformed into BL21 E. coli host cells and subjected to 0.5 mM IPTG induction for protein expression at 30° C. Purifications of the recombinant proteins by affinity nickel columns (HisTrap, GE Healthy Science, USA) were carried out using standard protocols according to manufacturer's instructions (Novagen, USA).
(§3) Control 1 and compound 161 are used as benchmarks and the symbols have the following representation: […]

[2] = target: T2, human ALDH2 wild type (Homo sapiens, UniProt P05091); test: ALDH2 enzymatic assay (NADH at 340 nm), recombinant wild type enzyme; assay type: biochemical; design: key: −: no activation or inhibition; +: activation less than control 1; ++: activation similar to control 1, within 10%; +++: activation more than control 1 and less than control (compound 161); ++++: activation similar to compound 161, within 10%; settings: activation relative to benchmarks control 1 and compound 161
T2 construct: His-tag (pTrcHis vector) (N); made in house; host or cells: E. coli BL21
T2 sequence (P05091 18-517): T1 sequence (P05091 18-517 E504K) with K487E
From the text: as §1, §2, §3

SMILES | ALDH2 (mutant) [1] | ALDH2 (wild-type) [2]
CC(C)Oc1ccc(CNC(=O)c2c(Cl)ccnc2NCC2CC2)cc1F [Compound 189] | + | −
COc1cc(F)c(CNC(=O)c2c(Cl)ccnc2OCC2CC2)cc1F [Compound 190] | ++++ | ++++
O=C(NCc1ccc(OC(F)(F)F)c(F)c1)c1c(Cl)ccnc1NCC1CC1 [Compound 191] | + | +
COc1ccc(CNC(=O)c2c(Cl)ccnc2OC)cc1F [Compound 192] | +++ | +++
CCOc1nccc(Cl)c1C(=O)NCc1ccc(OC)c(F)c1 [Compound 193] | ++ | ++
CCCOc1nccc(Cl)c1C(=O)NCc1ccc(OC)c(F)c1 [Compound 194] | +++ | +
COc1ccc(CNC(=O)c2c(Cl)ccnc2OC(C)C)cc1F [Compound 195] | ++ | ++
COc1ccc(CNC(=O)c2c(Cl)ccnc2OC2CC2)cc1F [Compound 196] | ++ | ++
COc1ccc(CNC(=O)c2c(Cl)ccnc2OC2CCC2)cc1F [Compound 197] | ++++ | ++++
COc1ccc(CNC(=O)c2c(Cl)ccnc2OCC2CCC2)cc1F [Compound 198] | +++ | +++
COc1ccc(CNC(=O)c2c(Cl)ccnc2OC2CCCC2)cc1F [Compound 199] | ++ | ++
COc1ccc(CNC(=O)c2c(Cl)ccnc2OCC2CCCC2)cc1F [Compound 200] | ++ | ++
CCC(CC)Oc1nccc(Cl)c1C(=O)NCc1ccc(OC)c(F)c1 [Compound 201] | ++ | ++
CCC(C)Oc1nccc(Cl)c1C(=O)NCc1ccc(OC)c(F)c1 (stereo not shown) [Compound 202] | + | ++
COc1ccc(CNC(=O)c2c(Cl)ccnc2OCC(C)(C)C)cc1F [Compound 203] | ++ | ++
COc1ccc(CNC(=O)c2c(Cl)ccnc2OCC2CCCN2)cc1F (stereo not shown) [Compound 204] | + | +
COc1ccc(CNC(=O)c2c(Cl)ccnc2OCC2CCNC2)cc1F (stereo not shown) [Compound 205] | + | +
COc1ccc(CNC(=O)c2c(Cl)ccnc2Oc2ccccc2)cc1F [Compound 206] | + | ++
COc1ccc(CNC(=O)c2c(Cl)ccnc2SC)cc1F [Compound 213] | ++ | ++
CCSc1nccc(Cl)c1C(=O)NCc1ccc(OC)c(F)c1 [Compound 214] | ++ | ++
CCCSc1nccc(Cl)c1C(=O)NCc1ccc(OC)c(F)c1 [Compound 215] | +++ | ++++

SMILES | ALDH2 (mutant) [1] | ALDH2 (wild-type) [2]
COc1ccc(CNC(=O)c2c(Cl)ccnc2SC(C)C)cc1F [Compound 216] | + | +
CCC(C)Sc1nccc(Cl)c1C(=O)NCc1ccc(OC)c(F)c1 (stereo not shown) [Compound 217] | ++ | +
COc1ccc(CNC(=O)c2c(Cl)ccnc2SCC(C)C)cc1F [Compound 218] | + | +
COc1ccc(CNC(=O)c2c(Cl)ccnc2S(C)(=O)=O)cc1F [Compound 219] | + | +
CCS(=O)(=O)c1nccc(Cl)c1C(=O)NCc1ccc(OC)c(F)c1 [Compound 220] | + | +
CCCS(=O)(=O)c1nccc(Cl)c1C(=O)NCc1ccc(OC)c(F)c1 [Compound 221] | + | +
COc1ccc(CNC(=O)c2c(Cl)ccnc2S(=O)(=O)C(C)C)cc1F [Compound 222] | + | +
CCC(C)S(=O)(=O)c1nccc(Cl)c1C(=O)NCc1ccc(OC)c(F)c1 (stereo not shown) [Compound 223] | + | +
COc1ccc(CNC(=O)c2c(Cl)ccnc2S(=O)(=O)CC(C)C)cc1F [Compound 224] | + | +
COc1ccc(CNC(=O)c2c(C(F)(F)F)ccnc2OCC2CC2)cc1F [Compound 225] | + | +
COc1ccc(CNC(=O)c2c(C(F)(F)F)ccnc2OCC(C)C)cc1F [Compound 226] | + | +
COc1ccc(CNC(=O)c2c(C(F)(F)F)ccnc2OC(C)C)cc1F [Compound 227] | + | +
CCC(CC)Oc1nccc(C(F)(F)F)c1C(=O)NCc1ccc(OC)c(F)c1 [Compound 228] | + | +
COc1ccc(CNC(=O)c2c(C(F)(F)F)ccnc2OCC2CCC2)cc1F [Compound 229] | + | +
COc1ccc(CNC(=O)c2c(C(F)(F)F)ccnc2OCC2CCCC2)cc1F [Compound 230] | + | +
COc1ccc(CNC(=O)c2c(C)ccnc2OCC2CC2)cc1F [Compound 231] | ++ | +
COc1ccc(CNC(=O)c2c(C)ccnc2OCC(C)C)cc1F [Compound 232] | + | +
COc1ccc(CNC(=O)c2c(C)ccnc2OC(C)C)cc1F [Compound 233] | + | +
CCC(CC)Oc1nccc(C)c1C(=O)NCc1ccc(OC)c(F)c1 [Compound 234] | + | +
COc1ccc(CNC(=O)c2c(C)ccnc2OCC2CCC2)cc1F [Compound 235] | + | +
